Legend:
[1] = system: surface ulcers of Koi (multiple antibiotic-resistant pathogenic species); experiment: Immersion bath treatment of Koi suffering from surface ulcers; assay type: in vivo, Koi (Cyprinus carpio); settings: antibiotic injected directly into the fish, before the bath treatment
Experimental: An immersion treatment of the infected animals of 5 to 10 minutes on alternate days over a six day period promoted healing of most ulcers.
All of the treated fish had previously been given injections of Azactam, Baytril, and Amikacin. […] Among the species of bacteria found in the ulcers of the fish were representatives of the genera Aeromonas, Proteus, Klebsiella, Staphylococcus, Streptococcus, Enterobacter and Flavobacterium.
All fish were housed in a communal “hospital tank” before treatment and moved to an isolation tank after each treatment. The temperature of the bath was adjusted to that of the hospital tank temperature, 24 C, and adequate aeration was supplied to the treatment tank. Eight of the fish had external ulcers of various dimensions. Two of the fish were dropsied.

Pseudomonas aeruginosa [2] = experiment: MIC/MBC microtiter dilution and checkerboard of EDTA-Tris and neomycin; assay type: cell-based
Experimental: (§1) This example describes a method for determining the FIC values set forth in Example 4. […] Agents and Chem. pp. 210-217 (1967); and Sparks et al., Vet. Res. Comm. 18:241-249 (1994). Each of the foregoing publications are incorporated herein by reference.
(§2) Then 0.05 ml of an 18-hour old culture of a test organism, containing […] colony-forming units (CFU) ml, were added to each well. Controls for the culture and media were included in each plate. Plates were covered and incubated at 37° C. for 18-24 hours.
(§3) To generate isobolograms, FICs of the two test solutions were plotted individually on the x-axis and y-axis to determine the effect of combining the two test solutions on bacterial growth. A line that curves away from the zero point and the coordinates indicated antagonism. […] Goodman and Gilman, pp. 1085-1086 (Macmillan Publishing Co., New York, 1985); Sabath, L. D., Antimicrob. Agents and Chem. pp. 210-217 (1967) and incorporated herein by reference in their entireties.
(§4) 307 (pub: Am. Soc. Microbiol. Williams and Wilkins, Baltimore 1970), incorporated herein by reference in its entirety.

Enterococcus faecalis = experiment: as above; assay type: cell-based
Experimental: as §1, §2, §3, §4

Staphylococcus aureus = experiment: as above; assay type: cell-based
Experimental: as §1, §2, §3, §4

Aeromonas caviae = experiment: MIC and FIC of EDTA and neomycin, Aeromonas isolated from ulcerated fish; assay type: cell-based; settings: A. caviae; EDTA in 50 mM Tris
Experimental: (§5) This example describes a method for determining the FIC values set forth in Example 4. […] Agents and Chem. pp. 210-217 (1967); and Sparks et al., Vet. Res. Comm. 18:241-249 (1994). Each of the foregoing publications are incorporated herein by reference. […] Then 0.05 ml of an 18-hour old culture of a test organism, containing […] colony-forming units (CFU) ml, were added to each well. Controls for the culture and media were included in each plate. Plates were covered and incubated at 37° C. for 18-24 hours. A numerical score or Fractional Inhibitory Concentration (FIC) index was determined. The FIC index is equal to the sum of the values of FIC for the individual drugs: An FIC index greater than 1.0 indicated an antagonistic interaction, an FIC index of 1.0 indicated addition, and an FIC index of less than or equal to 0.5 indicated synergism between the two test agents.

Aeromonas sobria = experiment: as above; assay type: cell-based; settings: A. sobria; EDTA in 50 mM Tris
Experimental: as §5

[3] = system: Pseudomonas aeruginosa isolated from burn patients; experiment: Antibiotic resistance profile, disc diffusion method; note: key: R = resistant; I = intermediate; S = sensitive; assay type: cell-based; settings: P. aeruginosa
[4] = system: Enterococcus faecalis isolated from burn patients; experiment: as above; assay type: cell-based; settings: E. faecalis; note: key: R = resistant; I = intermediate; S = sensitive
[5] = system: Staphylococcus aureus isolated from burn patients; experiment: as above; assay type: cell-based; settings: S. aureus; note: key: R = resistant; I = intermediate; S = sensitive
Pseudomonas aeruginosa [6] = experiment: MIC and MBC, isolates from dogs with otitis externa and pyoderma; assay type: cell-based; settings: P. aeruginosa (dog isolate); multiple of the 1x stock solution of the tested composition
Experimental: (§6) The formulation was tested against Pseudomonas aeruginosa, Proteus mirabilis, Escherichia coli, Staphylococcus intermedius, Malessezia pachydermatis, and Candida albicans.

Malassezia pachydermatis = experiment: as above; assay type: cell-based; settings: M. pachydermatis; multiple of the 1x stock solution of the tested composition
Experimental: as §6

[7] = system: Staphylococcus intermedius; experiment: as above; assay type: cell-based; settings: S. intermedius; multiple of the 1x stock solution of the tested composition
Experimental: as §6

[8] = system: Escherichia coli isolated from a dog with otitis externa; experiment: as above; assay type: cell-based; settings: E. coli
Experimental: as §6

Proteus mirabilis = experiment: as above; assay type: cell-based; settings: P. mirabilis; multiple of the 1x stock solution of the tested composition
Experimental: as §6

Candida albicans = experiment: as above; assay type: cell-based; settings: C. albicans; multiple of the 1x stock solution of the tested composition
Experimental: as §6

[9] = system: Pseudomonas aeruginosa isolated from a human burn patient; experiment: MIC and MBC of Tris, EDTA, cocamidopropyl betaine and silver combinations; assay type: cell-based; settings: P. aeruginosa (human burn isolate); multiple of the 1x stock solution of the tested composition
[10] = system: Staphylococcus aureus isolated from a human burn patient; experiment: as above; assay type: cell-based; settings: S. aureus (human burn isolate); multiple of the 1x stock solution of the tested composition
[11] = EDTA co-administered with neomycin in 50 mM Tris
[12] = multiple of the 1x stock solution of the tested composition
[13] = neomycin co-administered with EDTA in 50 mM Tris

NCC[C@H](O)C(=O)N[C@@H]1C[C@H](N)[C@@H](O[C@H]2O[C@H](CN)[C@@H](O)[C@H](O)[C@H]2O)[C@H](O)[C@H]1O[C@H]1O[C@H](CO)[C@@H](O)[C@H](N)[C@H]1O [Amikacin]
healing of visible ulcers [1]: failed to heal visible ulcers

C[C@H]1[C@H](NC(=O)/C(=N\OC(C)(C)C(=O)O)c2csc(N)n2)C(=O)N1S(=O)(=O)O [Azactam]
healing of visible ulcers [1]: failed to heal visible ulcers

CCN1CCN(c2cc3c(cc2F)c(=O)c(C(=O)O)cn3C2CC2)CC1 [Baytril]
healing of visible ulcers [1]: failed to heal visible ulcers

O=C(O)CN(CCN(CC(=O)O)CC(=O)O)CC(=O)O [EDTA, ethylenediaminetetraacetate]
MBC, Individually Administered (Pseudomonas aeruginosa [2]; EDTA alone in 50 mM Tris): 250 mM
MBC, Co-administered (Pseudomonas aeruginosa [2]; [11]): 20.0 mM
MBC, Individually Administered (Enterococcus faecalis; EDTA alone in 50 mM Tris): 250 mM
MBC, Co-administered (Enterococcus faecalis; [11]): 62.5 mM
MBC, Co-administered (Staphylococcus aureus; [11]): 3.9 mM
MIC, EDTA alone (Aeromonas caviae): <0.49
MIC, EDTA alone (Aeromonas sobria): 15.6

CN[C@H](CC(C)C)C(=O)N[C@H]1C(=O)N[C@@H](CC(N)=O)C(=O)N[C@H]2C(=O)N[C@H]3C(=O)N[C@H](C(=O)N[C@H](C(=O)O)c4cc(O)cc(O)c4-c4cc3ccc4O)[C@H](O)c3ccc(c(Cl)c3)Oc3cc2cc(c3O[C@@H]2O[C@H](CO)[C@@H](O)[C@H](O)[C@H]2O[C@H]2C[C@](C)(N)[C@H](O)[C@H](C)O2)Oc2ccc(cc2Cl)[C@H]1O [Va, vancomycin]
Antibiotic resistance profile [3]: R
Antibiotic resistance profile [4]: R
Antibiotic resistance profile [5]: S

cocamidopropyl betaine
MBC (Pseudomonas aeruginosa [6]): 0.5x
MIC (Pseudomonas aeruginosa [6]): 0.25x
MBC (Malassezia pachydermatis): 0.003x
MIC (Malassezia pachydermatis): 0.001x
MBC [7]: 0.001x
MIC [7]: 0.001x
MBC [8]: 50% of stock solution
MIC [8]: 25% of stock solution
MBC [8, 12]: 0.5x
MIC [8, 12]: 0.25x
MBC (Proteus mirabilis): 0.5x
MIC (Proteus mirabilis): 0.25x
MBC (Candida albicans): 0.003x
MIC (Candida albicans): 0.001x
MBC [9]: 0.5x
MIC [9]: 0.25x
MBC [10]: 0.001x
MIC [10]: 0.001x

gentamicin [GM]
Antibiotic resistance profile [3]: I
Antibiotic resistance profile [4]: R
Antibiotic resistance profile [5]: S

neomycin
Antibiotic resistance profile [3]: R
MBC, Individually Administered (Pseudomonas aeruginosa [2]; neomycin alone in 50 mM Tris): 5000 µg/mL
MBC, Co-administered (Pseudomonas aeruginosa [2]; [13]): 40 µg/mL
MBC, Individually Administered (Enterococcus faecalis; neomycin alone in 50 mM Tris): 25000 µg/mL
MBC, Co-administered (Enterococcus faecalis; [13]): 6250 µg/mL
MBC, Co-administered (Staphylococcus aureus; [13]): 1560 µg/mL
Antibiotic resistance profile [4]: R
Antibiotic resistance profile [5]: R

oxacillin/methicillin
Antibiotic resistance profile [3]: R
Antibiotic resistance profile [4]: R
Antibiotic resistance profile [5]: R
